What all share (type): in vivo, human
One experiment has as its system aphtha. In words: Case reports: rinse with quinoline derivative solution followed by chlorhexidine rinse in patients with aphthae. An excerpt:
(§1) Hydroxychloroquine (HCQ) was obtained from Sanofi-Syntelabo, Inc. New York USA, quinine (Q) and quinidine sulfate were obtained from Rakah, Holon, Israel. The compounds were mixed with tap water. Chlorhexidine was obtained from LACER S.A., Barcelona, Spain.
A person, generally in good health, presented a most painful, distressing major aphtha of approximately 1 cm diameter on the ventro-lateral tongue. They had suffered the presence of such lesions for several years (recurrences of 6 to 8 episodes per year). The current lesion had been present for about one week. During examination 2 lymph nodes were palpated in the floor of mouth, probably due to a secondary infection. They started to apply a rinse with 3.72 mg/cc HCQ solution (for 3 to 5 minutes) followed by a rinse with 0.12% chlorhexidine alcohol free solution (for about 1 minute), 3 times a day. Two days later, the patient was totally free of pain and the size of the aphtha diminished to about 7 mm diameter.
A person, presented a painful minor aphtha on the ventro-lateral part of the tongue. They reported its appearance about 1 week ago. In the past, frequent episodes of minor aphthae had occurred every 2 months. They started to rinse with 10 ml of quinine sulfate Solution 3 mg/cc (for 3 to 5 minutes) followed by a rinse with 0.12% chlorhexidine alcohol free solution (for about 1 minute), 3 times a day.

In the next experiment the test system is aphtha (canker sores). In words: Case reports: mouth rinses with a quinoline derivative solution in patients with aphthae.
From the text: as §1
A person, generally in good health, reported the presence of canker sores for several years (periodic recurrences of 3 to 4 episodes per year). […] The patient was seen five days after the appearance of the painful aphtha. They started oral rinses with 10 ml of hydroxychloroquine (HCQ) solution, 3.7 mg/ml, three times a day, each rinse for 3 to 5 min. […] They continued to rinse for about a week. No additional aphthous lesions appeared during 8 weeks of follow-up.
A person, in otherwise general good health, came with two painful major aphthae, one of 12 mm diameter on the left side of the lower lip mucosa and the second on the right latero-ventral side of the tongue, about 8 mm diameter. They reported the presence of recurrent aphthous lesions since they were […]. During the last year, they continuously suffered from recurrent episodes of major aphthae, with virtually no aphtae-free intervals. Each episode of aphthae usually lasted for 3 to 6 weeks. They started oral rinses with 10 ml of HCQ solution, 3.7 mg/ml, three times a day, each rinse for 3 to 5 min. […] Concomitantly, 2 new lesions of minor aphthae, 3 mm in diameter each, were seen, one on the left side of the upper lip mucosa and the other on the ventro-anterior side of the tongue. […] In total, they rinsed with the HCQ solution for 20 days.
A child, in otherwise general good health, reported the presence of recurrent aphthous lesions of different sizes for the last 2 years. The last episode had been about 3 months before examination. The lesions had disappeared within 2 weeks after using different conventional treatments. At clinical examination, one aphtha of about 3 mm diameter was found on the lower lip mucosa and another one about 6 mm diameter was found on the upper lip mucosa. Both lesions were painful. They started rinsing with 10 ml of HCQ solution, 2.5 mg/ml, three times a day, each rinse for 3 to 5 min. […] They reported to be free of any pain already after 24 hours from the start of rinsing. […], therefore, was able to eat everything. The patient was advised to continue rinsing with 10 ml of hydroxychloroquine (HCQ) solution, 3.7 mg/ml, three times a day, each rinse for 3 to 5 min for 7 additional days. […] They still continued with the rinses for 5 additional days, as recommended.
A person reported suffering from recurrent episodes of canker sores for many years, with 2 to 3 episodes per year. The last episode had occurred about 6 months before examination. They were diagnosed with diabetes mellitus, so that use of steroidal modalities for treatment of their aphthous lesions was contraindicated. […] They started rinsing with 10 ml of HCQ solution, 1.2 mg/ml, three times a day, each rinse for 3 to 5 min. After 24 hours from start of rinses they were free of any pain and was able to eat everything. […] They remained aphthae-free for 7 months.
A person, generally in good health, reports the presence of canker sores since childhood with about 8 to 10 recurrences per year. At clinical examination a minor painful aphtha was present on the mucosa of the lower lip. The ulcer was about 4-5 mm in diameter and was present for 8 days. […] They started to rinse with 10 ml of hydroxychloroquine (HCQ) solution, 1.2 mg/ml, three times a day, each rinse for 3 to 5 min.
A person presented a painful minor aphtha of about 3 mm in diameter in the right vestibulum of the lower jaw adjacent to the first molar. They reported the presence of pain and inconvenience for 2 days. In the past, they had experienced recurrences of such lesions every 3 to 4 months. They started to rinse with 10 ml of 0.085 mg/ml quinine solution for 3 to 5 minutes, about 5 to 7 times a day. […]

The next experiment concerns erosive lichen planus. In words: Case report: rinse and swallow of quinine solution in a patient with erosive lichen planus.
From the text: as §1
A person presented diffuse erosions/ulcerations of the buccal, labial and lingual mucosae that were present for at least 6 months. They complained of pain and difficulty to eat and speak. The erosive/ulcerative lesions were clinically specific for erosive lichen planus. They started to rinse (for 5 to 10 min) and swallow about 10- 20 ml of 0.085 mg/ml quinine solution, 5 to 7 times a day. […] They were able to maintain a stable asymptomatic condition of their lichen planus by means of quinine solution during about 1 year follow-up period.

The test system of experiment [1] is oral aphthous stomatitis and oral mucositis. In words: General statements on treating oral aphthous stomatitis and oral mucositis in patients. An excerpt:
In experiments carried out with particular preferred compounds of the invention, the pain caused by ulcerative lesions disappeared often within hours, and the ulcers and other symptoms disappeared usually within days. For example, patients with life-long recurrent aphthae problems achieved quick relief of pains caused by aphthae ulcers after rinsing their mouth with aqueous solutions comprising said compounds. The effect is often enhanced when said quinoline derivative is used together with an antiseptic.
Quinine at levels up to 83 ppm is approved by FDA for use in beverages as a flavoring agent.
In other preferred embodiment of this invention, oral mucositis is treated by a quinine (Q) salt in solution or suspension, which is used several times a day for rinsing mouth without swallowing, followed by rinsing with chlorhexidine solution. The concentration of Q is preferably about 0.083 mg/ml, and chlorhexidine solution has preferably a concentration from 0.05% to 0.2%. The rinsing with each of the two components is preferably performed 3-5 times a day. Said Q solution may comprise Q dihydrochloride, Q hydrochloride, Q sulfate, and other Q salts. Said Q suspension may, for example, comprise Q sulfate. Stereoisomers of quinine and their salts, such as quinidine sulfate, have been also found active.

[2] abbreviates: Example 2: HCQ solution 3.7 mg/ml.
Setting [3] is: Example 2: HCQ solution 3.7 mg/ml, three times a day.
Where [4] appears, read: Example 3: HCQ solution 2.5 mg/ml, three times a day.
[5] abbreviates: Example 7: 0.085 mg/ml quinine solution, rinse and swallow.

Each structure is given as a SMILES string. Structures can show the parent of a compound that is named as a salt.

Turning to `C=C[C@H]1C[N@@]2CC[C@H]1C[C@H]2[C@H](O)c1ccnc2ccc(OC)cc12` [quinine sulfate], in the experiment with aphtha (Example 9: person, minor aphtha, 10 ml quinine sulfate solution 3 mg/cc followed by 0.12% chlorhexidine rinse, 3 times a day), the “time until pain decreased significantly” value was at most 24 h. The “time until all the inconvenience disappeared” value with aphtha (Example 9: quinine sulfate solution 3 mg/cc followed by 0.12% chlorhexidine rinse, 3 times a day) was at most 48 h.
Regarding `CCN(CCO)CCCC(C)Nc1ccnc2cc(Cl)ccc12` (centres unmarked) [HCQ, Hydroxychloroquine], the “follow-up without additional aphthous lesions” value in the experiment with aphtha (canker sores) (Example 1: HCQ solution 3.7 mg/ml, rinsed about a week) was determined as 8 weeks. Besides, the “state of the aphtha 24 hours after start of treatment” value with aphtha (canker sores) (Example 1: minor aphtha, HCQ solution 3.7 mg/ml, three times a day) is recorded as “almost disappeared”. Besides, the “time after start of treatment until free of any pain” value in the experiment on aphtha (canker sores) (Example 1: person, minor aphtha, rinses 10 ml HCQ solution 3.7 mg/ml, three times a day, 3 to 5 min) is given as “Twenty-four”. For the same compound, in the experiment on aphtha (canker sores) (setting [2]), the “new minor aphtha (3 mm) on the lip after 4 more days of rinsing” value is “diminished significantly in its size”, the “new minor aphtha (3 mm) on the tongue after 4 more days of rinsing” value is on record as “disappeared” and the “pain from the two new minor aphthous lesions” value is recorded as “did not cause any pain whatsoever”. Also, the “follow up with no new aphthous lesions” value in the experiment with aphtha (canker sores) (Example 2: HCQ solution 3.7 mg/ml, rinsed 20 days in total) stood at 3 months. In the experiment with aphtha (canker sores) (setting [3]), the “aphtha of the tongue (about 8 mm), 5 days later” value was “completely disappeared” and the “major aphtha of the lower lip (12 mm), 5 days later” value is listed as “decreased in size to about half its original size”. The “major aphtha on the lower lip mucosa after 6 additional days” value with aphtha (canker sores) (Example 2: HCQ solution 3.7 mg/ml, 5 + 6 days, left a pronounced scar) is on record as “disappeared completely”. Besides, the “time after start of rinses until pain completely disappeared” value in the experiment on aphtha (canker sores) (Example 2: person, two major aphthae, 10 ml HCQ solution 3.7 mg/ml, three times a day, 3 to 5 min) stood at 24 h. Further, in the experiment with aphtha (canker sores) (setting [4]), the “diameter of aphtha on the lower lip after 5 days (initially about 3 mm)” value is “about 1 mm” and the “time from start of rinsing until free of any pain” value came out at 24 h. Further, the “follow up after cessation of rinses without new aphthae” value in the experiment on aphtha (canker sores) (Example 3: HCQ solution 2.5 then 3.7 mg/ml) is listed as 5 weeks. The “time until aphtha on the lower lip disappeared completely after continuing with 3.7 mg/ml” value in the experiment on aphtha (canker sores) (Example 3: after 5 days at 2.5 mg/ml, HCQ solution 3.7 mg/ml three times a day) is at most 2 days. Besides, the “lesion on upper lip (about 6 mm) after 5 days” value with aphtha (canker sores) (Example 3: child, 10 ml HCQ solution 2.5 mg/ml, three times a day, 3 to 5 min) is recorded as “almost disappeared”. In the experiment with aphtha (canker sores) (Example 4: HCQ solution 1.2 mg/ml), this compound had an aphthae-free period of 7 months. Further, in the experiment on aphtha (canker sores) (Example 4: HCQ solution 1.2 mg/ml, three times a day), the “state of the aphtha after 7 days of rinsing” value is given as “almost disappeared”. The “time from start of rinses until free of any pain” value in the experiment with aphtha (canker sores) (Example 4: person, diabetes mellitus, major aphthous lesion about 8 mm, 10 ml HCQ solution 1.2 mg/ml, three times a day) stood at 24 h. Moreover, the “follow up with no new aphthae” value in the experiment on aphtha (canker sores) (Example 5: HCQ solution 1.2 mg/ml) amounted to 4 months. Also, the “time until aphtha completely disappeared” value in the experiment with aphtha (canker sores) (Example 5: HCQ solution 1.2 mg/ml, three times a day) was “three”. In addition, the “time of rinses until no pain” value with aphtha (canker sores) (Example 5: person, minor aphtha 4-5 mm, 10 ml HCQ solution 1.2 mg/ml, three times a day) is reported as “one”. Further, the “diameter of the aphtha two days later (initially approximately 1 cm)” value with aphtha (Example 8: 3.72 mg/cc HCQ rinse followed by 0.12% chlorhexidine rinse, 3 times a day) is recorded as “about 7 mm”. Further, in the experiment on aphtha (Example 8: 3.72 mg/cc HCQ rinse followed by 0.12% chlorhexidine rinse, 2 + 2 days), the “state of the aphtha after 2 additional days of treatment” value is listed as “completely disappeared”. Further, the “time until totally free of pain” value in the experiment on aphtha (Example 8: person, major aphtha approx. 1 cm, probable secondary infection, 3.72 mg/cc HCQ rinse followed by 0.12% chlorhexidine rinse, 3 times a day) was “Two”.
With `C=C[C@H]1C[N@@]2CC[C@H]1C[C@H]2[C@H](O)c1ccnc2ccc(OC)cc12` [quinine], the “time until ulcer healed completely” value with aphtha (canker sores) (Example 6: 0.085 mg/ml quinine solution, 5 to 7 times a day) is given as at most 4 days. Also, the “time until pain and inconvenience disappeared” value with aphtha (canker sores) (Example 6: person, minor aphtha about 3 mm, 10 ml 0.085 mg/ml quinine solution, 3 to 5 minutes, 5 to 7 times a day) is 2 days. Besides, the “follow-up with no further recurrences” value in the experiment on aphtha (canker sores) (Example 10: 0.085 mg/ml quinine solution) is recorded as “about 6 months”. In addition, the “time until disappearance of the aphtha” value in the experiment with aphtha (canker sores) (Example 10: 0.085 mg/ml quinine solution, rinse and swallow) is given as “about 4 days”. The “time until free of any symptoms” value in the experiment on aphtha (canker sores) (Example 10: person, minor aphtha about 4 mm, 10 ml 0.085 mg/ml quinine solution, about 5 times per day, rinse 3 to 5 min and swallow) was at most 24 h. In the experiment with erosive lichen planus (setting [5]), the “erosive/ulcerative lesions after about 4 weeks” value was “marked healing” and the “symptoms of the lesions after about 4 weeks” value is “completely asymptomatic”. In the experiment with erosive lichen planus (Example 7: maintained by quinine solution), the “follow-up period with stable asymptomatic condition of lichen planus” value is listed as “about 1 year”. In the experiment with erosive lichen planus (Example 7: person, rinse (5 to 10 min) and swallow 10-20 ml of 0.085 mg/ml quinine solution, 5 to 7 times a day), the “pain and masticatory function after 3 days” value is on record as “significant amelioration”. Also, the “outcome in patients with major aphtha accompanied by a secondary infection” value in experiment [1] (mouth rinsing with 0.083 mg/ml of quinine, and optionally chlorhexidine, several minutes, several times a day) was “relief of pains and healing”.
Regarding `C=C[C@H]1C[N@@]2CC[C@H]1C[C@@H]2[C@@H](O)c1ccnc2ccc(OC)cc12` [quinidine sulfate], the “activity in treating oral mucositis” value in experiment [1] (general statement) is “active”.

The values are drawn from patent publication US20070155786A1, “Methods for treating oral aphthous stomatitis and oral mucositis” (priority 2004, published 2007).
